# Earlier results in patent US8158685B2, “Method for bone growth” (priority 2004, dated 2012).
# How the values were obtained:
# bone graft = settings: fluoride alone added to bone graft material
# spine = settings: immediate-release form, 75 mg/day with calcium carbonate over 4 years
SMILES,improvement/increase in bone density (bone graft) [%],bone density increase (spine) [%],effect on spinal fractures (spine)
F [fluoride],20,,
[F-].[Na+] [sodium fluoride],,35,failed to reduce spinal fractures
